Data set [1] relates to cellules tumorales L 1210. In words: Test de prolifération (réduction MTT), L1210. Format: cell-based. The note with it: 72 h incubation. Here is the method: (§1) Des cellules tumorales L 1210, A 549 et HT 29 en croissance exponentielle, à une densité de 5.10³/ml dans un milieu RPMI, sont incubées dans des plaques de microtitration contenant 96 puits, pendant 72 heures (37°C, 5 % CO₂, 95 % d'humidité relative) avec diffé-rentes concentrations de chacun des glycosides conformes à l'invention.
(§2) Les témoins consistent en cellules tumorales dans un milieu de culture frais.
(§3) Quatre puits sont préparés pour chaque concentration de glycoside et pour le témoin.
(§4) Après 65 heures, 50 µl de MTT (2,5 mg/ml dans du PBS) sont ajoutés.
(§5) Le MTT sera réduit, en présence de cellules vivantes, en un colorant formazan rouge insoluble.
(§6) Après 7 à 24 heures d'incubation supplémentaire, le surnageant est enlevé.
(§7) Le colorant formazan est solubilisé par l'addition de 100 µl de DMSO dans chaque puits, suivie d'une agitation douce. L'extinction est mesurée pour chaque puits, à 492 nm (photomètre Multiscan 340 cc, Fa. Flow).
(§8) Les résultats sont exprimés sous forme de relation de l'extinction après incubation avec les glycosides par rapport à l'extinction obtenue avec les té-moins. Le coefficient de variation est inférieur à 15 %. Les résultats sont représentés dans le tableau I, ci-après : […]

Another data set has as its system cellules tumorales A 549. In words: Test de prolifération (réduction MTT), A 549. The class given is cell-based. The conditions noted are these: A 549, MTT test, 72 h incubation. The method, then:
as §1, §2, §3, §4, §5, §6, §7, §8
Background: Formazan colour is commonly taken as a measure of viable cells.

For the next data set, the system named is cellules tumorales HT 29. In words: Test de prolifération (réduction MTT), HT 29. The note with it: HT 29, MTT test, 72 h incubation. The class given is cell-based. Here is the method: as §1, §2, §3, §4, §5, §6, §7, §8
The next data set has as its system leucémie P 388. The conditions noted are these: mouse, leucémie P 388, compared with daunorubicine 2a / doxorubicine 2b; cited from earlier work.
Another data set concerns leucémie L1210. The conditions noted are these: mouse, leucémie L1210, compared with daunorubicine 2a / doxorubicine 2b; cited from earlier work.
The conditions of data set [2]: animal models, compared with 2a and 2b; cited from earlier work.
Another data set deals with sarcome S 180. The note with it: mouse, sarcome S 180, compared with daunorubicine 2a / doxorubicine 2b; cited from earlier work.

`COc1cccc2c1C(=O)c1c(O)c3c(c(O)c1C2=O)C[C@@](O)(C(C)=O)C[C@@H]3O[C@H]1C[C@H](CNC(=O)C(F)(F)F)C[C@H](C)O1` [15a, O-(N-TRIFLUOROACETYL AMINOMETHYL-3′ TETRADESOXY-2′, 3′, 4′,6′-α-L-LYXO-HEXOPYRANOSYL)-7 DAUNOMYCINONE]: the IC₅₀ is listed as 0,25 µg/ml in data set [1], 0,43 µg/ml with cellules tumorales A 549 and 0,67 µg/ml in the data set on cellules tumorales HT 29.

For `CC[C@@]1(O)C[C@H](O[C@H]2C[C@H](CNC(=O)C(F)(F)F)C[C@H](C)O2)c2c(O)c3c(c(O)c2[C@H]1O)C(=O)c1cccc(O)c1C3=O` [16a, O-(N-TRIFLUOROACETYL AMINOMETHYL-3′ TETRADESOXY-2′,3′, 4′,6′-α-L-LYXO-HEXOPYRANOSYL)-7 β-RHODOMYCINONE], the IC₅₀ in data set [1] was 0,14 µg/ml; with cellules tumorales A 549 it was 0,14 µg/ml; in the data set with cellules tumorales HT 29, 0,48 µg/ml.

Consider `COc1cccc2c1C(=O)c1c(O)c3c(c(O)c1C2=O)C[C@@](O)(C(C)=O)C[C@@H]3O[C@H]1C[C@H](N)C[C@H](C)O1` [compound 3], for which the activité in vivo entry in the data set with leucémie P 388, in the data set on leucémie L1210 and in the data set with sarcome S 180 was “aussi actifs” each time. Besides, the cardiotoxicité entry in data set [2] is given as “moins cardiotoxiques”.

`COc1cccc2c1C(=O)c1c(O)c3c(c(O)c1C2=O)C[C@@](O)(C(=O)CO)C[C@@H]3O[C@H]1C[C@H](N)C[C@H](C)O1` [compound 4]: the activité in vivo result with leucémie P 388, in the data set with leucémie L1210 and with sarcome S 180 was “aussi actifs” each time. Besides, the cardiotoxicité result in data set [2] is reported as “moins cardiotoxiques”.

These data come from patent EP0363255A1, “Analogues of 4-desoxydaunosamine, process for their preparation, anthracycline derivatives of these analogues and use of these anthracyclines as medicaments” (LABORATOIRES HOECHST S.A., priority 1988, dated 1990).
